Measurements: ChEMBL document CHEMBL5338815 (J Med Chem, 2023)
Calls of active or inactive are those of the source. The rule behind the calls is not given here.

Legend:
[1] = AUC (0 to t) in ICR mouse at 2 mg/kg, ip measured upto 24 hrs by LC-MS/MS analysis; assay type: ADME, organism-based; parameters: dose 2 mg/kg, time < 24 hrs, route ip; settings: in vivo
MDA-MB-231 [2] = assay: Reduction in H3K9me2 level in human MDA-MB-231 cells at 10 uM incubated for 48 hrs followed replaced with fresh medium measured after 48 hrs by Western blot analysis; assay type: functional, cell-based
[3] = target: T1, Histone-lysine N-methyltransferase EHMT2 (Homo sapiens, UniProt Q96KQ7); assay: Inhibition of G9a (unknown origin) by AlphaLISA assay
T1 sequence (Q96KQ7 whole entry): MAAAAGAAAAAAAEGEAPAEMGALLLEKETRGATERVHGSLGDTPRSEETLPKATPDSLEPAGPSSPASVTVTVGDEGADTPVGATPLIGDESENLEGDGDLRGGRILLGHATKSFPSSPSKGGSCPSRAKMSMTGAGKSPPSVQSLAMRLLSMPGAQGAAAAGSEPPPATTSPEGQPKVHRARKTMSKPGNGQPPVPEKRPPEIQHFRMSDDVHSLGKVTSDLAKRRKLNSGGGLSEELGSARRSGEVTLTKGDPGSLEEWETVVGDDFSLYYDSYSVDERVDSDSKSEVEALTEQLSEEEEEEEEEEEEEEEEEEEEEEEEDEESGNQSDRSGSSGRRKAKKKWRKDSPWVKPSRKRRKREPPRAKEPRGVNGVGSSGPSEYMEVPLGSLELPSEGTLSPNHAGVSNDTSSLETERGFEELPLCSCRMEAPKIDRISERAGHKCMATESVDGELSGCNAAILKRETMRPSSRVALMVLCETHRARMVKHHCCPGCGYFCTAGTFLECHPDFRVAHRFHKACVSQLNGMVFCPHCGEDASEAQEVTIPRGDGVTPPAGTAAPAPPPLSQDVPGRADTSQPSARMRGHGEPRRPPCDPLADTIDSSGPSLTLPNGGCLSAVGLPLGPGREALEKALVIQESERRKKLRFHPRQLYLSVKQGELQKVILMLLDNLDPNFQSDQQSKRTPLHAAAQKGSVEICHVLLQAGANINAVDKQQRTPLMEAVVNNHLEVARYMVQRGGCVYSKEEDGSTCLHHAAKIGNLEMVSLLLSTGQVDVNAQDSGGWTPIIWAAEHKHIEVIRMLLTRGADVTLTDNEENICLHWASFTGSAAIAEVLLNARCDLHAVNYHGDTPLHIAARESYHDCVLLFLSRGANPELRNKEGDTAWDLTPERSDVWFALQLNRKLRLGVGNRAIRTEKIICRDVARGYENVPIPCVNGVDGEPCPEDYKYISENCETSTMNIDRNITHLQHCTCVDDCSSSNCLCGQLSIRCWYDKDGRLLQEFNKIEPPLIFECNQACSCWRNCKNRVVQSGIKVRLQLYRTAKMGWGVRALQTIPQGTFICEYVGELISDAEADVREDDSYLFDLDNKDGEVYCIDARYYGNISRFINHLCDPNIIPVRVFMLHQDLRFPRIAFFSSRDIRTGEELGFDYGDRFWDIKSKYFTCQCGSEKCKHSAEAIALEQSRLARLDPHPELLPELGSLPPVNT

[4] = Metabolic stability in mouse liver microsomes assessed as half life at 0.1 uM measured upto 60 mins by LC-MS/MS analysis; assay type: ADME, Microsome
PANC-1 = assay: Inhibition of colony formation in human PANC-1 cells at […] incubated for 14 days drug medium changed for every 2 days by crystal violet staining based analysis; assay type: cell-based; settings: dose 2.5 µM, time 14.0 day
[5] = target: T2, Histone-lysine N-methyltransferase EHMT2 (Homo sapiens) (UniProt Q96KQ7); assay: Covalent inhibition of recombinant G9a (unknown origin) assessed as adduct formation intensity by mass spectrometric analysis; settings: time <= 16.0 hrs, TDE = time-dependent effect
T2 sequence (whole entry): T1 sequence (Q96KQ7 whole entry)

[6] = target: T3, Histone-arginine methyltransferase CARM1 (Homo sapiens, UniProt Q86X55); assay: Inhibition of PRMT4 (unknown origin)
T3 sequence (Q86X55 whole entry): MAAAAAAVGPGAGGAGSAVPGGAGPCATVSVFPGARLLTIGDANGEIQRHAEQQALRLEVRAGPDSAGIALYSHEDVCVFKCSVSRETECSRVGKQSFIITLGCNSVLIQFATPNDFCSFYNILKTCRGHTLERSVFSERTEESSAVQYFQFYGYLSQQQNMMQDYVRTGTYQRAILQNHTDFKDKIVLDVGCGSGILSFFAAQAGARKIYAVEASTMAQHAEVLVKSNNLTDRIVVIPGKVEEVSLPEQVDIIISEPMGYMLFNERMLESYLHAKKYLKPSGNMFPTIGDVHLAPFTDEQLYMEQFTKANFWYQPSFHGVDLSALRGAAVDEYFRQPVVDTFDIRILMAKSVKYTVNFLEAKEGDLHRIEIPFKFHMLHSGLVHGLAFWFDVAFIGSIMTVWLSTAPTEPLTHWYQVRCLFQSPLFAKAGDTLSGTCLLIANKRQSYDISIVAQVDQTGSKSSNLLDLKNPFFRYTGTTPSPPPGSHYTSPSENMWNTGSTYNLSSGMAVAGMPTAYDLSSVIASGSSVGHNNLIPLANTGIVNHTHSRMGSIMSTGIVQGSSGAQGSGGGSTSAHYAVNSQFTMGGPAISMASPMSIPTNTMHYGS

MDA-MB-231 [7] = assay: Antiproliferative activity against human MDA-MB-231 cells assessed as cell viability measured after 24 hrs by CCK-8 assay; assay type: functional, cell-based; settings: MDA-MB-231, 24 h
[8] = target: Protein arginine N-methyltransferase 5 (Homo sapiens, UniProt O14744); assay: Inhibition of PRMT5 (unknown origin)
Chain of Protein arginine N-methyltransferase 5 (O14744 whole entry): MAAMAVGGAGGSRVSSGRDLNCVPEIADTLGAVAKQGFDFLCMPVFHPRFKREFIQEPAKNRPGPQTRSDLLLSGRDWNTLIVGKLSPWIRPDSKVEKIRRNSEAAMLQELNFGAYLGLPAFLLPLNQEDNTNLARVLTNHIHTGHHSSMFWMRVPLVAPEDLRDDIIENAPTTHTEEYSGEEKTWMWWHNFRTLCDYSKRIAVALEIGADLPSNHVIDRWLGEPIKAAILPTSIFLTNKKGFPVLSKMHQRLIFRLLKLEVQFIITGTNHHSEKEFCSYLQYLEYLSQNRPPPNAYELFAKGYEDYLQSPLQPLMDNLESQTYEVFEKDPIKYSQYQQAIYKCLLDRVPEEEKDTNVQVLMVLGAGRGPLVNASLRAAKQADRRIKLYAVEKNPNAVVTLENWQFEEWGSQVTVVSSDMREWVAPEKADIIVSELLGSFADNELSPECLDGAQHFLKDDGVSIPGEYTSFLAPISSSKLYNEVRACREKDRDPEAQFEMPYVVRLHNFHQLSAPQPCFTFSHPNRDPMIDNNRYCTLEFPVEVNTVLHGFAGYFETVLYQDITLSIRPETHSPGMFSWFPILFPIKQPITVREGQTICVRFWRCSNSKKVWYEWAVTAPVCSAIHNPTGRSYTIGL

[9] = target: Histone-lysine N-methyltransferase 2B (Homo sapiens, UniProt Q9UMN6); assay: Inhibition of MLL4 (unknown origin)
Chain of Histone-lysine N-methyltransferase 2B (Q9UMN6 whole entry): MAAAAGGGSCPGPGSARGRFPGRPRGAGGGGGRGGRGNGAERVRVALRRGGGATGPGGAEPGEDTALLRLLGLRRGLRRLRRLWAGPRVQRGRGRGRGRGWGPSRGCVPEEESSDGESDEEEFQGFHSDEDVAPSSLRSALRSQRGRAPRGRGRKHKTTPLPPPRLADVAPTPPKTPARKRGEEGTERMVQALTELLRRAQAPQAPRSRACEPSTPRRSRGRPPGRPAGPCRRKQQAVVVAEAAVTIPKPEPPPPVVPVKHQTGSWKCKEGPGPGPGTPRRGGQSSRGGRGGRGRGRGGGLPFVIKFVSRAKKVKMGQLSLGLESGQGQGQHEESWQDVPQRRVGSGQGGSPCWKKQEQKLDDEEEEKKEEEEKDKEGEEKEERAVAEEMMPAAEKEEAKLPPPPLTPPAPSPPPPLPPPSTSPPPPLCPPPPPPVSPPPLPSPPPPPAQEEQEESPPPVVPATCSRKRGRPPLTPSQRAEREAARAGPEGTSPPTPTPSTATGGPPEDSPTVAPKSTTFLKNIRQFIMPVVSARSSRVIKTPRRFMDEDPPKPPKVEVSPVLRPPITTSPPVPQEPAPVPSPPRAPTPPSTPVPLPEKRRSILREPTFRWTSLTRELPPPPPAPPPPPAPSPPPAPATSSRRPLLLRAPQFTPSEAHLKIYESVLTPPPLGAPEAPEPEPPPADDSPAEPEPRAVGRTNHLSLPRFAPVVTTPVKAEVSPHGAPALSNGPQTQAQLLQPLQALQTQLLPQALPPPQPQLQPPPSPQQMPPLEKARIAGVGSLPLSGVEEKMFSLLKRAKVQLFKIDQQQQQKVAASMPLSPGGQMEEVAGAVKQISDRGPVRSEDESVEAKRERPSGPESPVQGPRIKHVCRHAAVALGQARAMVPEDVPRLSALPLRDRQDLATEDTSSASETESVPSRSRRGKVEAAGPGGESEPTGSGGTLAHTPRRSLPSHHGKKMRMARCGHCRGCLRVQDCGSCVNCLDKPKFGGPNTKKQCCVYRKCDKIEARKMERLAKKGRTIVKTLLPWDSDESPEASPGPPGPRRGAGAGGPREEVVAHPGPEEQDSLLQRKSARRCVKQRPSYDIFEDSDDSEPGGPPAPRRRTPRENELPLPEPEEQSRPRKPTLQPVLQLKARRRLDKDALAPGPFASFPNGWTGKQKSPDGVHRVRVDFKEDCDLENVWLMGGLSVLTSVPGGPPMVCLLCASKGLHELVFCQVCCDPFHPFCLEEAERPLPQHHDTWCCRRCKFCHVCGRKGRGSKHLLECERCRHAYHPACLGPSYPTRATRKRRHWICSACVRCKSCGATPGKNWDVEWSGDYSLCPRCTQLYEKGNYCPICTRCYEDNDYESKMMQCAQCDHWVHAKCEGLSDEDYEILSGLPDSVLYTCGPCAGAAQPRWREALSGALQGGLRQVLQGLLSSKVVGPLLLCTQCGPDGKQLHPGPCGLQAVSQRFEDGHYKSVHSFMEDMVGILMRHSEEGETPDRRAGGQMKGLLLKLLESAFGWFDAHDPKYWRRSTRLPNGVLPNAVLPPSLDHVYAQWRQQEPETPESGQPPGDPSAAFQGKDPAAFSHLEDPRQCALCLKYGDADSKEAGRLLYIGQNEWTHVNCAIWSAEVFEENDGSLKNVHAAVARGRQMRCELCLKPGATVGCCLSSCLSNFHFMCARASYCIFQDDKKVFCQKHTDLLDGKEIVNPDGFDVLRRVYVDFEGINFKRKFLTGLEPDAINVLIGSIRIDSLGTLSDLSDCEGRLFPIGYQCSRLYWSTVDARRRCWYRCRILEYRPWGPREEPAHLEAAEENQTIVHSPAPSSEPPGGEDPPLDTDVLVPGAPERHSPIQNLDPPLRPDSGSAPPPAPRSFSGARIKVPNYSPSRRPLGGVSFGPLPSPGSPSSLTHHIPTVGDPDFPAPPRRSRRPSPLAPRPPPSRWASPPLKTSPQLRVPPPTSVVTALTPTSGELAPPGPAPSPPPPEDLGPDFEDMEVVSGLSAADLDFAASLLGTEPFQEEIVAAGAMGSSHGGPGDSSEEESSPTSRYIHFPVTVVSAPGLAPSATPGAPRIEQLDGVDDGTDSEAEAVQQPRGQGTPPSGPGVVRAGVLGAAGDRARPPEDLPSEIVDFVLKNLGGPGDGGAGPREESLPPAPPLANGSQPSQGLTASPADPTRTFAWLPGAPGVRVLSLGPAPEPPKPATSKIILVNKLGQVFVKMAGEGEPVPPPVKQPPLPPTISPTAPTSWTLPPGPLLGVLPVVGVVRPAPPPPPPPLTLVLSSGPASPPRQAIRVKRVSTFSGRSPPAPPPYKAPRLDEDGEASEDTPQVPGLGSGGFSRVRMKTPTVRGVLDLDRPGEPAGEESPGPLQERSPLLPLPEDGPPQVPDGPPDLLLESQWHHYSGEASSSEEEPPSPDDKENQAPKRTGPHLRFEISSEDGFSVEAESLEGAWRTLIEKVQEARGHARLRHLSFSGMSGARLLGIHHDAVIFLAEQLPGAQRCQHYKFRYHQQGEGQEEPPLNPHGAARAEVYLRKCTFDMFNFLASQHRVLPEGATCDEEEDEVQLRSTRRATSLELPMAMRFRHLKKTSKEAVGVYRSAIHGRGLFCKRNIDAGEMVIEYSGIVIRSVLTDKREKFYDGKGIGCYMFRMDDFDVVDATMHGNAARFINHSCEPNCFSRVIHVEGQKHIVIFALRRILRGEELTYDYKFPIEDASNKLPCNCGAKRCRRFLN

MDA-MB-231 [10] = assay: Reduction in H3K9me2 level in human MDA-MB-231 cells at 10 uM incubated for 48 hrs followed replaced with fresh medium measured after 24 hrs by Western blot analysis; assay type: functional, cell-based
[11] = target: T2, Histone-lysine N-methyltransferase EHMT2 (Homo sapiens); assay: Covalent inhibition of recombinant G9a (unknown origin) assessed as adduct formation intensity by measuring mass after 12 hrs by mass spectrometric analysis
[12] = target: T2, Histone-lysine N-methyltransferase EHMT2 (Homo sapiens); assay: Binding affinity to G9a in human MDA-MB-231 cells assessed as protein stabilization at 37 to 41.7 degC at 10 uM incubated for 15 hrs in presence of G9a antibody by CETSA; assay type: cell-based
[13] = AUC (0 to infinity) in ICR mouse at 2 mg/kg, ip measured upto 24 hrs by LC-MS/MS analysis; assay type: ADME, organism-based; parameters: dose 2 mg/kg, time < 24 hrs, route ip; settings: in vivo
[14] = Toxicity in Balb/c mouse xenografted with human PANC-1 cells assessed as body weight change at 2 mg/kg, ip treated for 22 days relative to control; assay type: organism-based; settings: in vivo, 528 h, time 22 day
[15] = MRT in ICR mouse at 2 mg/kg, ip measured upto 24 hrs by LC-MS/MS analysis; assay type: ADME, organism-based; settings: in vivo

SMILES: C=CC(=O)N(C)c1nc(NC2CCN(C)CC2)c2cc(OC)c(OCCCN3CCCC3)cc2n1
- AUC(0-t) at 24 h [1]: 0.208 µg·h/mL
- inhibition (MDA-MB-231 [2]): inactive
- IC50 [3]: 0.0085 µM
- half-life at 0.1 µM [4]: 71.2 min
- inhibition (PANC-1): Active
- inhibition [5]: Tde
- IC50 [6]: 6.68 µM
- IC50 (MDA-MB-231 [7]): 2.88 µM
- IC50 [8]: > 20 µM
- IC50 [9]: > 20 µM
- inhibition (MDA-MB-231 [10]): Active
- Activity [11]: 60700 Da
- Activity [12]: Active
- AUC(0-inf) [13]: 0.214 µg·h/mL
- Activity [14]: Non-Toxic
- MRT [15]: 36.6 min
